Laboratory results published in the supplement of paper PMC13380429.
± gives the standard deviation of the averaged measurements.

Columns and labels:
Settings in all cases: 72 h
Caco-2 [1] = experiment: drug sensitivity score (DSS) for viability; higher = more toxic; extreme values may be limits of the assay
HepG2 [2] = experiment: as above
Calu-3 [3] = experiment: as above
Vero E6 [4] = experiment: as above
U2OS [5] = experiment: as above
Caco-2 [6] = experiment: relative viability EC50 (midpoint between 100% and the lowest measured viability); higher = less toxic
HepG2 [7] = experiment: as above
Calu-3 [8] = experiment: as above
Vero E6 [9] = experiment: as above
U2OS [10] = experiment: as above
Caco-2 [11] = experiment: cell viability relative to DMSO; higher = less toxic
HepG2 [12] = experiment: as above
Calu-3 [13] = experiment: as above
Vero E6 [14] = experiment: as above
U2OS [15] = experiment: as above

SMILES | drug sensitivity score (Caco-2 [1]) | drug sensitivity score (HepG2 [2]) | drug sensitivity score (Calu-3 [3]) | drug sensitivity score (Vero E6 [4]) | drug sensitivity score (U2OS [5]) | relative viability EC50 (Caco-2 [6]) | relative viability EC50 (HepG2 [7]) | relative viability EC50 (Calu-3 [8]) | relative viability EC50 (Vero E6 [9]) | relative viability EC50 (U2OS [10]) | cell viability (Caco-2 [11]; 1 nM) | cell viability (Caco-2 [11]; 10 nM) | cell viability (Caco-2 [11]; 100 nM) | cell viability (Caco-2 [11]; 1000 nM) | cell viability (Caco-2 [11]; 10000 nM) | cell viability (HepG2 [12]; 1 nM) | cell viability (HepG2 [12]; 10 nM) | cell viability (HepG2 [12]; 100 nM) | cell viability (HepG2 [12]; 1000 nM) | cell viability (HepG2 [12]; 10000 nM) | cell viability (Calu-3 [13]; 1 nM) | cell viability (Calu-3 [13]; 10 nM) | cell viability (Calu-3 [13]; 100 nM) | cell viability (Calu-3 [13]; 1000 nM) | cell viability (Calu-3 [13]; 10000 nM) | cell viability (Vero E6 [14]; 1 nM) | cell viability (Vero E6 [14]; 10 nM) | cell viability (Vero E6 [14]; 100 nM) | cell viability (Vero E6 [14]; 1000 nM) | cell viability (Vero E6 [14]; 10000 nM) | cell viability (U2OS [15]; 1 nM) | cell viability (U2OS [15]; 10 nM) | cell viability (U2OS [15]; 100 nM) | cell viability (U2OS [15]; 1000 nM) | cell viability (U2OS [15]; 10000 nM)
CCN(CC)c1ccc(/C=N/NC(=O)c2ccc(O)cc2)cc1 [DY131] | 0 | 0.2 | 0 | 0 | 0 | > 10 µM | > 10 µM | > 10 µM | > 10 µM | > 10 µM | 94.3% | 96.4% | 98.4% | 95.4% | 98.2% | 102% | 105% | 95.9% | 105% | 83.4% | 95.4% | 91.5% | 99.8% | 97.8% | 95.3% | 107% | 98.3% | 101% | 102% | 95.1% | 99.6% | 97.5% | 101% | 95.4% | 97.6%
Cc1nnc(C(=O)NC(C)(C)c2nc(C(=O)NCc3ccc(F)cc3)c(O)c(=O)n2C)o1 [raltegravir] | 0 | 0 | 0 | 0 | 0 | > 10 µM | > 10 µM | > 10 µM | > 10 µM | > 10 µM | 102% | 104% | 94.4% | 94.7% | 99.7% | 100% | 102% | 97.6% | 118% | 90.3% | 104% | 99.3% | 99% | 107% | 104% | 101% | 99.3% | 95.7% | 97.5% | 94.4% | 104% | 95.9% | 100% | 97.5% | 100%
CCOC(=O)C1=C(C)NC(C)=C(C(=O)OCC)C1c1ccccc1/C=C/C(=O)OC(C)(C)C [lacidipine] | 2.5 | 0 | 0 | 0 | 0 | > 10 µM | > 10 µM | > 10 µM | > 10 µM | > 10 µM | 97.4% | 91% | 90.2% | 84.7% | 79% | 96.2% | 102% | 96.8% | 114% | 91.9% | 97% | 89.8% | 106% | 93% | 91% | 92% | 99.4% | 89.7% | 99.6% | 106% | 96.6% | 95.2% | 98.5% | 92.1% | 97.5%
C=C[C@H]1CN2CC[C@H]1C[C@H]2[C@H](O)c1ccnc2ccccc12 [cinchonidine] | 0 | 0 | 0 | 0 | 0 | > 10 µM | > 10 µM | > 10 µM | > 10 µM | > 10 µM | 94.8 ± 2.2% | 98.6 ± 0.42% | 99.8 ± 11% | 114 ± 16% | 116 ± 5.9% | 104 ± 7.8% | 94.5 ± 1.2% | 97.05 ± 0.35% | 92 ± 0.42% | 94.2 ± 2.8% | 95.2 ± 1.6% | 102 ± 2.5% | 100 ± 4% | 98.7 ± 5% | 106 ± 5.8% | 104 ± 4% | 105 ± 5.8% | 106 ± 0.21% | 95.55 ± 0.64% | 97.1 ± 1.7% | 98.35 ± 0.071% | 103 ± 2% | 97.85 ± 0.78% | 102 ± 1.2% | 99.5 ± 4.2%
C[C@H](Nc1ncnc2[nH]cnc12)c1cc2ccc(F)cc2nc1-c1ccccn1 [AMG319] | 0.2 ± 0.28 | 0 | 0 | 0.75 ± 0.35 | 0 | > 10 µM | > 10 µM | > 10 µM | > 10 µM | > 10 µM | 100 ± 4.2% | 104 ± 6.4% | 98.5 ± 1.3% | 93.4 ± 5.8% | 95 ± 13% | 103 ± 2.3% | 96.5 ± 11% | 115 ± 5% | 97.8 ± 6.2% | 99.3 ± 5.4% | 103 ± 0.64% | 97.2 ± 1.3% | 108 ± 8.1% | 100 ± 13% | 96.5 ± 2.5% | 98.8 ± 3.9% | 97.8 ± 0.85% | 98.5 ± 1.2% | 92.2 ± 2.3% | 83.7 ± 4.1% | 99% | 101% | 98.3% | 102% | 101%
NCCCC[C@H](NC(=O)[C@@H](Cc1cc(Br)c(O)c(Br)c1)NC(=O)N1CCC(N2Cc3ccccc3NC2=O)CC1)C(=O)N1CCN(c2ccncc2)CC1 [BIBN4096] | 0 | 0 | 0 | 0 | 0.3 | > 10 µM | > 10 µM | > 10 µM | > 10 µM | > 10 µM | 88.6% | 97% | 101% | 90.3% | 100% | 102% | 97.2% | 92.4% | 97.5% | 102% | 93.7% | 96.9% | 100% | 110% | 105% | 102% | 97.2% | 98.6% | 99.1% | 104% | 95.8% | 98.5% | 94.8% | 84.5% | 91.6%
CCCCCCCCCCCCOS(=O)(=O)O [dodecyl-sulfate] | 0.05 ± 0.071 | 0 | 0 | 0 | 0 | > 10 µM | > 10 µM | > 10 µM | > 10 µM | > 10 µM | 101 ± 8.6% | 99.5 ± 16% | 102 ± 3.1% | 99.2 ± 3.1% | 106 ± 27% | 106 ± 15% | 106 ± 12% | 102 ± 7% | 99.6 ± 5.7% | 92.1 ± 3.1% | 106 ± 17% | 94.5 ± 9% | 103 ± 4.2% | 90.5 ± 6.3% | 106 ± 3.5% | 100 ± 5.2% | 102 ± 7.9% | 95.7 ± 5.3% | 104 ± 1.7% | 101 ± 6.7% | 100 ± 4.9% | 93.5 ± 0.28% | 102 ± 4% | 91.7 ± 0.28% | 100 ± 4.6%
Nc1nc(=O)n([C@H]2C[C@H](O)[C@@H](CO)O2)cc1Cl [cytochlor] | 0.5 | 1.7 | 0.4 | 0 | 0 | > 10 µM | > 10 µM | > 10 µM | > 10 µM | > 10 µM | 90% | 97.6% | 77.4% | 101% | 84.6% | 114% | 105% | 113% | 93.5% | 76.5% | 91.6% | 98.1% | 102% | 95.7% | 86.3% | 100% | 98.5% | 98.8% | 98.3% | 98.7% | 97.7% | 100% | 94.4% | 100% | 92.5%
CS(=O)(=O)c1ccc(-c2cnc(N)c(C(=O)Nc3ccccc3)n2)cc1 [VE-821] | 0 | 0.4 | 0 | 0 | 0 | > 10 µM | > 10 µM | > 10 µM | > 10 µM | > 10 µM | 102% | 94.8% | 101% | 95.1% | 97.4% | 97.3% | 99.3% | 95% | 98.6% | 84.2% | 99.1% | 94.7% | 102% | 95.1% | 95.3% | 99.1% | 95.7% | 97.1% | 98% | 94% | 102% | 95.7% | 96.9% | 93.1% | 91.6%
CCCCc1ccc(C(N)=O)nc1 [bupicomide] | 0 | 0 | 0 | 0 | 0 | > 10 µM | > 10 µM | > 10 µM | > 10 µM | > 10 µM | 94.6% | 81.3% | 94% | 90.8% | 88% | 93.8% | 103% | 92.6% | 116% | 114% | 97.9% | 84.9% | 103% | 84.7% | 99.3% | 96.6% | 99.9% | 96% | 100% | 107% | 99.9% | 94.5% | 103% | 93.6% | 102%
Cc1cc(SCc2sc(-c3ccc(C(F)(F)F)cc3)nc2C)ccc1OCC(=O)O | 0 | 0 | 0 | 0 | 0 | > 10 µM | > 10 µM | > 10 µM | > 10 µM | > 10 µM | 99.9% | 103% | 104% | 103% | 96.2% | 99% | 101% | 106% | 104% | 96.1% | 108% | 92.8% | 92.6% | 99.5% | 102% | 106% | 104% | 103% | 97.6% | 97.3% | 98.4% | 102% | 99.9% | 107% | 99%
CC(C(=O)O)c1ccc(CC2CCCC2=O)cc1 (stereo not given) [loxoprofen] | 0 | 0 | 0 | 0 | 0 | > 10 µM | > 10 µM | > 10 µM | > 10 µM | > 10 µM | 98.6% | 90% | 97.1% | 88.1% | 96% | 92.1% | 104% | 97% | 108% | 94.3% | 101% | 110% | 104% | 108% | 93.6% | 106% | 97.4% | 98.4% | 92.8% | 94.2% | 108% | 92.7% | 98.3% | 94.8% | 96.9%
O=C(N[C@H]1CN2CCC1CC2)c1ccc2c(c1)OCCO2 | 0 | 0 | 0 | 0 | 0 | > 10 µM | > 10 µM | > 10 µM | > 10 µM | > 10 µM | 93.6% | 95.2% | 87.5% | 101% | 99.1% | 101% | 93% | 108% | 97.7% | 94.6% | 93.6% | 98.3% | 102% | 102% | 99.3% | 100% | 89.3% | 97.2% | 91.3% | 107% | 98.8% | 94.8% | 97.8% | 95.3% | 97.2%
